The target in data set [1] is T1, PatAB (PatA^WTB^WT) (Streptococcus pneumoniae, UniProt A0ACD7PU88+Q8DN70).
T1 construct: gene ABC-NP; full length; N-terminal His6-PatA and C-terminal PatB-His10, tags kept; coexpressed in Lactococcus lactis NZ9000 ΔlmrA ΔlmrCD
Kind of data set: competition with EMA photolabelling, in-gel fluorescence. Particulars: 20-fold excess over EMA, membrane vesicles; also transported substrate (efflux from L. lactis cells). It is filed as binding.

Data set [2] concerns the target T1, PatAB (PatA^WTB^WT). Kind of data set: fluorescence anisotropy titration. It counts as binding.
For data set [3], the target named is T1, PatAB (PatA^WTB^WT). Kind of data set: ATPase inhibition, malachite green Pi assay. It counts as biochemical.
For data set [4], the target named is T2, PatAB (PatA^WTB^WT) (Streptococcus pneumoniae, UniProt A0ACD7PU88+Q8DN70, Q8DN70:Q521A).
T2 construct: gene ABC-NP
Description: biochemical.
Description: ATPase inhibition, malachite green Pi assay on PatAB (PatA^WTB^WT)

Data set [5] relates to Nc1nc2c(ncn2[C@@H]2O[C@H](COP(=O)(O)OP(=O)(O)OP(=O)(O)O)[C@@H](O)[C@H]2O)c(=O)[nH]1. Description: GTPase, malachite green Pi assay. It is filed as biochemical, Streptococcus pneumoniae. Conditions: 10 mM MgCl2, pH 7.0, 30 °C, DDM, no drug.

For `COc1cccc2c1C(=O)c1c(O)c3c(c(O)c1C2=O)C[C@@](O)(C(C)=O)C[C@@H]3O[C@H]1C[C@H](N)[C@H](O)[C@H](C)O1` [daunomycin], in data set [1], the “% reduction in EMA incorporation” value is listed as 75%.

`CC[n+]1c(-c2ccccc2)c2cc(N)ccc2c2ccc(N)cc21` [Ethidium] showed a Kd in data set [2] of 0.103 µM. For the same molecule, the IC50 is 7.1 ± 1.8 µM in data set [3] and 6.5 ± 1.7 µM in data set [4]. Turning to `CO[C@@H]1[C@@H](OC(N)=O)[C@@H](O)[C@H](Oc2ccc3c(O)c(NC(=O)c4ccc(O)c(CC=C(C)C)c4)c(=O)oc3c2C)OC1(C)C` [Novobiocin], the IC50 in data set [3] was 4.6 ± 1.7 µM; in data set [4], 9.7 ± 2 µM.

Regarding “PatAB (PatA^WTB^WT) (Streptococcus pneumoniae)”, the Michaelis-Menten constant (Km) in data set [5] worked out at 1100 ± 400 µM. Take `CC[N+](C)(CC)CCC[n+]1c(-c2ccccc2)c2cc(N)ccc2c2ccc(N)cc21` [Propidium]: the IC50 in data set [3] was determined as 0.9 ± 0.6 µM; in data set [4], 0.9 ± 0.8 µM.

Consider `CO[C@@H]1[C@@H](OC(=O)c2ccc(C)[nH]2)[C@@H](O)[C@H](Oc2ccc3c(O)c(NC(=O)c4c[nH]c(C(=O)Nc5c(O)c6ccc(O[C@@H]7OC(C)(C)[C@H](OC)[C@@H](OC(=O)c8ccc(C)[nH]8)[C@H]7O)c(C)c6oc5=O)c4C)c(=O)oc3c2C)OC1(C)C` [Coumermycin A1], for which the results for the IC50 in data set [3] and in data set [4] were 3.7 ± 0.4 µM and 3 ± 1 µM, respectively.

Broadly, the Kd is the concentration at which binding is half-saturated. In general, IC50 refers to the point on the concentration scale where inhibition reaches its midpoint. In general, Km refers to the substrate concentration at which the rate is half of its maximum.
